Where two headings read alike, the source gives them in different places.
Experiments:
[1] = tested on: IMQ-induced psoriasis mouse model; assay: IMQ-induced psoriasis-like skin inflammation mouse model; assay type: in vivo, BALB/c mice; conditions: intragastric once a day, 7 days
Description: During treatment for 7 days, to score the severity of inflammation of mouse skin, an objective scoring system was developed based on the clinical psoriasis area and severity index. Erythema, scaling, and thickening were scored independently from 0 to 4 as follows: 0, none; 1, slight; 2, moderate; 3, marked; 4, very marked and weight loss. The cumulative score (erythema plus scaling plus thickening) served to indicate the severity of inflammation (scale 0 ∼ 12). On the 8th day, the mice were taken eyeball blood and back skin. One-half of the samples were immediately fixed in 4% paraformaldehyde and for haematoxylin and eosin (H&E) staining. The other samples were put in a −80 °C freezer. Before used, they were placed at room temperature for 30 min. After that, they were added 1 × PBS proportionally, homogenised and centrifuged. The supernatant was collected and used for ELISA assay and Western blot assay. […] The histological image was obtained using 3[sequence]’s Slide Converter (3[sequence], Hungary).

[2] = cited from earlier work
[3] = tested on: LPS-induced nitric oxide production in RAW264.7 cells; assay: LPS-induced NO production, Griess Reagent assay; assay type: cell-based, mouse; conditions: for Inhibitory activity on LPS-induced NO secretion, in words: 10 µM; for IC50: LPS (0.5 μg/mL) 24 h; for Inhibition rate±SD (%) against NO production / inhibition at 10 µM: compounds 10 μM, 1 h, then LPS (0.5 μg/mL) 24 h; for inhibition at 10 µM: read-out: Inhibition rate±SD (%) against NO production
Description: RAW264.7 cells (7 × 10^4 cells/well) were seeded into 48-well plate and used for experiments after 24 h. […] After 24 h collect cell supernatant, NO production was measured using Griess Reagent assay (Beyotime). Griess reagent were mixed at a ratio of 1:1, and reacted at room temperature for 15 min. Measurement of absorbance at […] with enzyme reader. At least three independent experiments were performed for the determination of IC50 values, which were shown as mean ± SD. All experimental data were analysed by using GraphPad Prism software, version 8.0 (GraphPad Inc.).

[4] = tested on: RAW264.7 cells; assay: Cell viability assay (MTT), RAW264.7; assay type: cell-based, mouse; conditions: 24 h, read-out: Cytotoxicity IC50 with RAW264.7
Description: (§1) RAW264.7 cells (1 × 10^4 cells/well) were seeded into 96-well plate and used for experiments after 24 h. Compounds (4 µM, 20 µM and 100 µM) treated cell for 24 h. Forty microliters of MTT solution (5 mg/mL, Sigma-Aldrich) was then added and incubated for an additional 4 h. After 4 h, cell culture supernatants were removed and DMSO (150 µL) was added into per well for dissolving the resulting crystals. Shaking about 1 0 ∼ 15 min and the absorbance at 492 nm was measured by a microplate reader (MQX200, Bio-Tek, Winooski, VT). At least three independent experiments were performed for the determination of IC50 values, which were shown as mean ± SD. All experimental data were analysed by using GraphPad Prism software, version 8.0 (GraphPad Inc.).

[5] = tested on: LO2 cells; assay: Cell viability assay (MTT), LO2; assay type: cell-based; conditions: 24 h, read-out: Cytotoxicity IC50 with LO2
[6] = tested on: LPS-induced HaCaT cells; assay: Hyperproliferation assay, LPS-stimulated HaCaT cells (MTT); assay type: cell-based, human; conditions: pre-treated 6 h, LPS 24 h
Description: HaCaT cells were seeded in 96-well plates and cultured at 37 °C in a humidified 5% CO2 atmosphere. When the cell confluency reached 60–70%, HaCaT cells were then starved in serum-free DMEM for 12 h before stimulated by 100 ng/mL LPS for 24 h to mimic hyperproliferative psoriatic keratinocytes. The cell viability was measured by MTT method. Results are expressed as the percentage survival of cells in the cell treated group and the untreated control group (without the tested compound and LPS).

[7] = molecular target: T1, TOPK (Homo sapiens, UniProt Q96KB5); set-up: method as in PMID 17276892; conditions: 100 µM; cited from earlier work
T1 construct: endogenous in cells
T1 sequence (Q96KB5 1-322): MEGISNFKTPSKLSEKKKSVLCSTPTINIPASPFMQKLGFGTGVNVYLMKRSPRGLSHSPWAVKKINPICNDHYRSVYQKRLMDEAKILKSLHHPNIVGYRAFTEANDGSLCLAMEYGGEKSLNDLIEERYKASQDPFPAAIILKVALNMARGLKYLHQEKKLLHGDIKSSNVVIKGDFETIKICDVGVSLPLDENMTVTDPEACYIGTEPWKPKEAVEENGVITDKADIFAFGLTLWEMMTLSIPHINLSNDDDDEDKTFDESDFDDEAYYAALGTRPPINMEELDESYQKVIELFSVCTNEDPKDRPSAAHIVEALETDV

[8] = molecular target: T1, TOPK; set-up: method as in earlier work; conditions: ref 16/17; cited from earlier work
[9] = molecular target: T1, TOPK; set-up: method as in PMID 28404919; conditions: time- and dose-dependent, in vitro and in vivo; cited from earlier work
[10] = Cell viability assay (MTT), RAW264.7; assay type: cell-based, mouse; conditions: mouse, RAW264.7 cells, read-out: Cytotoxicity IC50 with RAW264.7
Description: as §1

[11] = Cell viability assay (MTT), LO2; assay type: cell-based; conditions: human, LO2 cells, read-out: Cytotoxicity IC50 with LO2
[12] = Human liver microsomes stability assay in vitro; assay type: in vitro ADME
Description: The livers were homogenised initially in a Tris (0.1 M)/KCl (0.1 M)/EDTA (1 mM)/butylated sodium hydroxytoluene (BHT) (0.02 mM) buffer. Add 1.5 µL control/test compound B12 working solution to 238.5 µL liver microsome working solution, gently mix. Pre-incubate at 37 °C for 5 min. Start the reaction by adding 60 µL NADPH working solution. Mix by pipetting up and down. At each time point: 0, 5, 15, 30 and 60 min, remove 30 µL of reaction mixture to 300 µL of quenching solution. Vortex vigorously for ∼1 min and centrifuge at 4000 rpm at 4 °C for 15 min. Remove 100 µL of the supernatant and mixed with 100 µL distilled water for LC-MS/MS analysis.

| Molecule | Inhibitory activity on LPS-induced NO secretion, in words [3] | IC50 [3] [µM] | Inhibition rate±SD (%) against NO production [3] [%] | IC50 [4] [µM] | IC50 [5] [µM] | IC50 ([3]; Mus musculus) [µM] | inhibition at 10 µM ([3]; Mus musculus) [%] | IC50 at 24 h [10] [µM] | IC50 at 24 h [11] [µM] | melting point [°C] | also measured |
| --- | --- | --- | --- | --- | --- | --- | --- | --- | --- | --- | --- |
| C[C@@H]1C[C@H]2[C@@H]3CCC4=CC(=O)C=C[C@]4(C)[C@@]3(F)[C@@H](O)C[C@]2(C)[C@@]1(O)C(=O)CO [dexamethasone, reference compound] | – | – | – | – | – | – | – | – | – | – | Pathological reduction, H&E of skin tissue ([1]; 20 mg/kg): high pathological reduction; Experimental symptoms and PASI score ([1]; B12 20 and 40 mg/kg, Dex 20 mg/kg): significantly attenuated experimental symptoms and PASI score |
| COc1cc(O)c(C(C)=O)cc1N [Compound 2] | – | – | – | – | – | – | – | – | – | – | Anti-inflammatory activity ([2]; reported by Huang): strong anti-inflammatory activity |
| COc1cc(O)c(C(C)=O)cc1[N+](=O)[O-] [Compound 1] | – | – | – | – | – | – | – | – | – | – | Anti-inflammatory activity ([2]; reported by Huang): strong anti-inflammatory activity |
| 1–(5-acetyl-2-methoxyphenyl)-3–(2-fluorophenyl) urea [Compound B7] | weak to moderate inhibitory activity | > 10 | 15.69±4.15 | > 100 | > 100 | – | – | – | – | – | – |
| 1–(5-acetyl-2-methoxyphenyl)-3–(4-fluorobenzyl) urea [Compound C4] | – | > 10 | 45.23±3.25 | > 100 | > 100 | – | – | – | – | – | – |
| 1–(5-acetyl-2-methoxyphenyl)-3–(4-methoxyphenyl) urea [Compound B10] | moderate inhibitory activity | > 10 | 5.03± 6.25 | > 100 | > 100 | – | – | – | – | – | – |
| COc1ccc(C(C)=O)c(O)c1 [Pae, paeonol] | weak potencies | – | – | – | – | > 10 | 18.4 ± 1.84 | > 100 | > 100 | – | Excessive proliferation of LPS-induced HaCaT cells [6]: did not have this effect; Expression of TOPK [7]: inhibit the expression of TOPK; Affinity for TOPK (MST) [8]: confirmed the affinity of paeonol for TOPK; Phosphorylation levels of p38, JNKs, MSK1 and histone H2AX [9]: suppressed |
| 1–(5-acetyl-2-methoxyphenyl)-3–(4-methylbenzyl) urea [Compound C3] | – | > 10 | 30.23±4.56 | > 100 | > 100 | – | – | – | – | – | – |
| 1–(5-acetyl-2-methoxyphenyl)-3–(4-fluorophenyl) urea [Compound B6] | moderate inhibitory activity | > 10 | 24.15±6.18 | > 100 | > 100 | – | – | – | – | – | – |
| COc1cc(O)c(C(C)=O)cc1NC(=O)N1CCCC1 [Compound A12, N-(5-acetyl-4-hydroxy-2-methoxyphenyl) pyrrolidine-1-carboxamide] | – | – | – | – | – | > 10 | 32.1 ± 4.17 | > 100 | > 100 | 118 to 120 | – |
| CNC(=O)Nc1cc(C(C)=O)c(O)cc1OC [Compound A1, 1–(5-acetyl-4-hydroxy-2-methoxyphenyl)-3-methylurea] | – | – | – | – | – | > 10 | 20.1 ± 6.12 | > 100 | > 100 | 211 to 213 | – |
| COc1cc(O)c(C(C)=O)cc1NC(=O)Nc1ccc(OC(F)(F)F)cc1 [Compound B13, 1–(5-acetyl-4-hydroxy-2-methoxyphenyl)-3–(4-(trifluoromethoxy)phenyl) urea] | – | – | – | – | – | > 10 | 25.1 ± 4.18 | > 100 | > 100 | 209 to 210 | – |
| COc1ccc(C(C)=O)c(Oc2ccc(NC(=O)/C=C/c3cc(OC)c(OC)c(OC)c3)cc2)c1 [Compound 3] | – | – | – | – | – | – | – | – | – | – | Anti-inflammatory activity [2]: suitable anti-inflammatory activity |
| COc1ccccc1NC(=O)Nc1cc(C(C)=O)c(O)cc1OC [Compound B9, 1–(5-acetyl-4-hydroxy-2-methoxyphenyl)-3–(2-methoxyphenyl) urea] | weak to moderate inhibitory activity | – | – | – | – | 6.88 | 56.7 ± 4.28 | > 100 | > 100 | 228 to 229 | – |
| COc1ccc2c(c1)[C@]13CCCC[C@@H]1[C@H](C2)N(C)CC3 [Dextromethorphan, reference compound] | – | – | – | – | – | – | – | – | – | – | CLhep ([12]; human): 13.7 mL/min/kg; T1/2 ([12]; human liver microsomes): 39.5 min; microsomal CLint ([12]; human liver microsomes): 35.1 µL/min/mg |
| COc1cc(O)c(C(C)=O)cc1NC(=O)NC1CC1 [Compound A9, 1–(5-acetyl-4-hydroxy-2-methoxyphenyl)-3-cyclopropylurea] | – | – | – | – | – | > 10 | 41 ± 3.15 | > 100 | > 100 | 191 to 192 | – |

From publication PMC8890542, “Discovery of novel paeonol-based derivatives against skin inflammation in vitro and in vivo” (Journal of Enzyme Inhibition and Medicinal Chemistry, 2022)
